# Measured values from patent US20250000924A1, “Composition for the prevention, improvement or treatment of allergic disease comprising an extract of Taxus cuspidata as an active ingredient” (KOREA INSTITUTE OF SCIENCE AND TECHNOLOGY, priority 2023, published 2025).
# Test system: mast cells
# Test: Anti-allergic effect of active ingredients derived from Taxus cuspidata extract (degranulation, PGE2, TNF-α, IL-4 overall)
# Assay type: cell-based, rat
# Settings: overall statement on FIGS. 13 to 16; compounds at 20 μM
# Procedure: Mast cells were cultured in the same manner as in Example 2 above, and then treated with the nine compounds isolated in Example 11 above at a concentration of 20 μM, respectively.
# Mast cells were cultured in the same manner as in Example 3 above, and then treated with the nine compounds isolated in Example 11 above at a concentration of 20 μM, respectively.
# • treated with the 9 compounds isolated in Example 11 at a concentration of 20 μM, respectively.
# Mast cells were cultured in the same manner as in Example 5 above, and then treated with the nine compounds isolated in Example 11 above at a concentration of 20 μM, respectively.
row,Compound,anti-allergy effects
1,OCCCc1ccc(O)cc1 [3-(4-Hydroxyphenyl)-1-propanol],excellent
2,O=Cc1ccc(O)cc1 [4-hydroxyl benzandehyde],excellent
3,COc1cc(O)cc(OC)c1 [Taxicatigenin],excellent
